Assay in all cases: NCI anticancer screen, dose series, 48 h
The test system of assay [1] is UACC-257 melanoma.
For assay [2], the system named is MDA-MB-435.
Assay [3] has as its system U251 CNS.
In assay [4] the test system is M14 melanoma.
Assay [5] deals with HOP-62 NSCLC.
In assay [6] the test system is OVCAR-4 ovarian.
In assay [7] the test system is HOP-92 NSCLC.
In assay [8] the test system is SNB-75 CNS.
Assay [9] has as its system SK-MEL-5 melanoma.
Assay [10] relates to A498 renal.
Assay [11] concerns A549 NSCLC.
The test system of assay [12] is 786-0 renal.
Assay [13] concerns HS 578T breast.
Assay [14] concerns LOX IMVI melanoma.
Assay [15] concerns SF-268 CNS.
Assay [16] deals with CAKI-1 renal.
For assay [17], the system named is SR leukemia.
Assay [18] has as its system HCT-15 colon.
The subject of assay [19] is BT-549 breast.

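Each compound was tested at five concentrations against cells in 96-well plates for 48 hours. TGI denotes the concentration required for complete inhibition of growth.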 Where only a bound is given, the exact number is not on record here.

For `NC(=O)C(=CNC(=S)Nc1ccc(Cl)c(Cl)c1)C(N)=O`, the TGI in [1], in assay [2], in assay [3], in assay [4], in [5] and in assay [6] was greater than 100 µM in each case. Moreover, the TGI in assay [7], in assay [8], in assay [9], in [10], in [11] and in assay [12] was greater than 100 µM each time. Also, the TGI in assay [13] was greater than 88.9 µM; in assay [14], greater than 100 µM; in assay [15], greater than 100 µM; in assay [16], greater than 100 µM; in assay [17], greater than 100 µM; in [18], greater than 100 µM.
With `COc1cc(CNC2=NCCC2)cc(OC)c1OC`, the TGI in [1], in assay [3], in [4], in [5], in assay [6] and in assay [7] was greater than 100 µM each time. Moreover, the TGI in assay [8], in assay [9], in assay [11], in assay [12], in [15] and in assay [19] was greater than 100 µM each time. The TGI in [16] and in assay [18] was greater than 100 µM each time.
In the case of `CC(=O)OC1CC2(C)OC(Cc3ccccc32)O1` (centres undefined), the TGI in assay [1], in assay [3], in [4], in [5], in assay [7] and in [8] was greater than 100 µM each time. In addition, the TGI in assay [11], in assay [12], in [14], in assay [15] and in assay [17] was greater than 100 µM throughout.
For the molecule `CCC12CCCNC1c1c(n(C)c3ccccc13)C(C(=O)OC)C2` (centres undefined), the TGI is 255 µM in assay [1]; greater than 275 µM in assay [3]; greater than 275 µM in [5]; 113 µM in assay [7]; 82.5 µM in assay [9]; greater than 275 µM in [11]. Moreover, the TGI in [12] was greater than 275 µM; in assay [14], greater than 275 µM; in assay [15], greater than 275 µM; in assay [16], 77.3 µM; in [17], greater than 275 µM; in assay [18] it was greater than 275 µM.
In the case of `Cc1cc(C)n2c(-c3ccccc3)c(C)cc2n1`, the TGI in assay [1], in [3], in [4], in assay [5], in [6] and in assay [7] was greater than 100 µM each time. The TGI was 59.8 µM in assay [8]; greater than 100 µM in assay [9]; greater than 100 µM in assay [10]; greater than 100 µM in assay [11]; greater than 100 µM in [12]; greater than 100 µM in assay [14]. The TGI in assay [15], in assay [16] and in assay [18] was greater than 100 µM throughout.
For the molecule `CCOC(=O)C1C(c2ccc(O)c(OC)c2)c2c([nH][nH]c2=O)CC1(C)O` (centres undefined), the TGI in [1], in assay [2], in assay [3], in assay [4], in assay [5] and in assay [6] was greater than 100 µM throughout. Also, the TGI in assay [7], in [8], in [9], in [10], in assay [11] and in assay [12] was greater than 100 µM in each case. The TGI in assay [13], in assay [14], in assay [15], in [16], in [17] and in assay [18] was greater than 100 µM throughout.
In the case of `O=C(Nc1nc(C23CC4CC(CC(C4)C2)C3)cs1)c1cc2cc(Cl)ccc2oc1=O`, the TGI in assay [1], in assay [2], in [3], in assay [5], in assay [6] and in assay [7] was greater than 100 µM throughout. Besides, the TGI in assay [8], in assay [9], in assay [10], in [11], in assay [12] and in assay [13] was greater than 100 µM each time. In addition, the TGI in assay [14], in assay [16], in [17] and in assay [18] was greater than 100 µM in each case.
Regarding `C[C@H](NC(=O)n1c2ccccc2c2ccccc21)C(=O)O`, the TGI in [1], in assay [3], in assay [5], in [7], in assay [9] and in assay [11] was greater than 100 µM each time. Further, the TGI in assay [12], in assay [14], in assay [15], in assay [16], in assay [17] and in assay [18] was greater than 100 µM in each case.
As to `O=C(OC[C@H]1C[C@H]2C(=O)CCC[C@H]2O1)c1ccccc1`, the TGI in [1], in [2], in assay [3], in assay [4], in assay [5] and in assay [6] was greater than 100 µM in each case. In addition, the TGI in assay [7], in assay [8], in [9], in assay [10], in [11] and in assay [12] was greater than 100 µM in each case. Moreover, the TGI in [13], in assay [14], in [15], in [16], in [17] and in [18] was greater than 100 µM in each case.

Source of the values: PubChem BioAssay (NCI).
